The values that follow come from patent publication US20260297129A1, “PEPTIDES AS SELECTIVE IL-23 RECEPTOR INHIBITORS” (SANOFI, priority 2023, published 2026).

SMILES strings stand for the structures. Where two headings read alike, the source gives them in different places. Numbered stars: 1 amine (or outer) side, 2 acyl side, 3 side chain; on linkers, the order of the positions; unused ones are H or OH. Bridge positions count the residues as written; N and C are the ends. Square brackets hold non-standard residues; d marks the D form. Peptide text beside a SMILES is read from it. * marks the point of attachment. Lys(Me,(CH2)4NMe(CH2)5CO) = CN(CCCCCC(=O)[*:3])CCCCN(C)CCCC[C@H](N[*:1])C(=O)[*:2]; Lys(Me,(CH2)4NMe(CH2)4CO) = CN(CCCCC(=O)[*:3])CCCCN(C)CCCC[C@H](N[*:1])C(=O)[*:2]; Trp(7-Me) = Cc1cccc2c(C[C@H](N)C(=O)O)c[nH]c12; Trp(1-Me) = Cn1cc(C[C@H](N)C(=O)O)c2ccccc21; NH(2-(3-pyridyl)ethyl) = c1cncc(CCN*)c1; αMeLys(Me2) = CN(C)CCCC[C@](C)(N)C(=O)O; 2Nal = N[C@@H](Cc1ccc2ccccc2c1)C(=O)O; 3Pal = N[C@@H](Cc1cccnc1)C(=O)O; Aun = NCCCCCCCCCCC(=O)O; Thp = NC1(C(=O)O)CCOCC1; Me2NCH2CH2 = CN(C)CC*; Aib = CC(C)(N)C(=O)O; Sar = CNCC(=O)O

Data set [1] can be described thus: Solubility of peptide compounds in buffer formulations (Table 5). The format is physicochemical. The conditions noted are these: target 1 mg/ml. As to the method:
Prior to the solubility measurement of a peptide batch, its purity was determined through UHPLC/MS method A.
For solubility testing the target concentration was 1 mg pure compound/ml. Therefore, solutions from solid samples were prepared in a buffer system at a concentration of 1 mg/mL compound. The solid samples were obtained by drying down aliquots of a freshly prepared dimethyl sulfoxide stock solution using a THERMO SPEEDVAC vacuum centrifuge. The dry down time was 3 hours.
The following buffer systems were applied: • Solubility buffer system A) 50 mM HCl pH 1.2 • Solubility buffer system B) 50 mM phosphate buffer pH 6.5 • Solubility buffer system C) 50 mM phosphate buffer pH 7.4 • UHPLC-UV was performed using analytical method A after 2 hours of gentle agitation from the filtered (0.45 μm filter plates) solutions, which were obtained by 10 mins of centrifugation forced filtration at 1500 RCF (relative centrifugal acceleration).
The solubility was determined by the comparison of the UV peak area of 2 μL-injections of a buffered sample diluted 1:10 with a standard curve of a dimethyl sulfoxide reference sample of known concentration. The different extinction coefficients were taken into account for the calculation.

Data set [2] in a line: Protease stability in simulated gastric fluids (FaSSGF) (Table 7). In kind it is in vitro ADME. The conditions noted are these: fassgf with pepsin, 60 min, 37° C., read-out: Remaining percentage of peptide compound, FaSSGF 60 (min). Here is the method:
(§1) Studies were carried out in simulated intestinal fluid (SIF) and simulated gastric fluid (SGF) to evaluate gastric stability of the peptide compounds disclosed herein.
For clarification, the term “Pepsin-SGF” refers to a solution of simulated gastric fluid containing pepsin whereas “SGF media” refers to a solution of simulated gastric fluid without pepsin. Pepsin-SGF was prepared by dissolving 320 mg Pepsin (Merck Millipore) in 100 mL SGF media concentrate (PROSENSE).
(§2) Peptide compounds were first dissolved at 1 mM stock concentration in 0.01 HCl (+/−10% of DMSO) and were than diluted further with water to a stock concentration of 20 μM. Final peptide concentration in the incubation was 1 μM.
(§3) To 76 μL of the Pepsin-SGF buffer, 4 μL of the 20 μM peptide stock solution was added and incubated at 37° C. At each timepoint (0, 60, 120 and 240 minutes) the reaction was quenched with addition of 80 μL Ethanol (0,1% HCOOH). The samples were centrifuged for 20 minutes and an aliquot of the supernatant 100 μL were transferred to a LoBind-MTP plate and analyzed by LCMS/MS. The peak area response was calculated at each time point for each test compound. As internal reference, the peak area response of the same test compound at T0 was calculated. The percentage remaining at each timepoint was calculated based on the peak area response ratio of the test compound at T0. Time 0 was set to 100%, and all later timepoints were calculated relative to time 0.
as §3, with “(0.1%” for “(0,1%”

Data set [3] concerns IL-23 induced STAT3 signaling (IL-23 receptor) in HEK-Blue IL-23 cells. Put plainly: Inhibition of IL-23 induced STAT3 signaling in HEK-Blue IL-23 cells, SEAP reporter (Table 9). The conditions noted are these: human IL23 0.25 ng/ml, overnight, read-out: Inhibition of IL-23 induced pSTAT3 (IC50 nM). The format is cell-based. From the text: HEK-Blue™ IL-23 cells (INVIVOGEN) are designed for the detection of bioactive human (hIL-23) and murine IL-23 (mIL-23) by monitoring the activation of the STAT3 pathway. Binding of IL-23 to its receptor on the surface of HEK-Blue™ IL-23 cells triggers a signaling cascade leading to the activation of STAT3 and the subsequent production of secreted embryonic alkaline phosphatase (SEAP). This can be readily assessed using QUANTI-Blue™ Solution, a SEAP detection reagent.
HEK-Blue™ IL-23 cells were cultured as described by INVIVOGEN.
On the first day of assay 10 μL of the HEK-BLUE IL23 cell suspension (final concentration: 10,000 cells/well) and 10 μl of serially diluted peptides solutions were dispensed into a 384-well assay plate. After pre-incubation of the reaction mixtures at 37° C./5% CO2/95% humidity for 60 minutes, 10 μl of the humanIL23 cytokine (final concentration: 0.25 ng/ml) was added to each well for the STAT3 signaling activation. The plate was incubated overnight at 37° C./5% CO2/95% humidity.
On the second day 20 μl per well of QUANTI-BLUE detection solution (prepared according to the manufacture instruction) was dispensed into a new 384-well plate and followed by the transfer of 5 μl supernatant of the overnight incubated cell/sample mixtures. After incubation of 45 min at room temperature signals were measured with PHERASTAR (BMG) at OD 620-655 nm.
Dose response data were fitted with XLfit.

A short description of data set [4]: Protease stability in simulated intestinal fluids (FaSSIF) (Table 7). In kind it is in vitro ADME. The conditions noted are these: fassif with pancreatin, 37° C.; for remaining at 1 h, 1 µM: 60 min, read-out: Remaining percentage of peptide compound, FaSSIF 60 (min); for remaining at 2 h, 1 µM: 120 min, read-out: Remaining percentage of peptide compound, FaSSIF 120 (min); for remaining at 4 h, 1 µM: 240 min, read-out: Remaining percentage of peptide compound, FaSSIF 240 (min). Here is the method: as §1
Similarly, the term “Pancreatin-SIF” refers to a solution of simulated intestinal fluid containing pancreatin whereas “SIF-media” refers to a solution of simulated intestinal fluid without pancreatin. Pancreatin-SIF was prepared by dissolving 1 mg Pancreatin (MP Biomedicals) in 10 mL SIF media concentrate (PROSENSE).
as §2
as §3, with “(0.1%” for “(0,1%”

Where [5] appears, read: Buffer pH 1.1 (head; method: 50 mM HCl pH 1.2), 2 h agitation, read-out: Solubility, Buffer pH 1.1.
The mark [6] stands for this setting: aqueous buffer, 50 mM phosphate buffer pH 6.5, 2 h agitation, read-out: Solubility, Buffer pH 6.5.
Setting [7] is: aqueous buffer, 50 mM phosphate buffer pH 7.4, 2 h agitation, read-out: Solubility, Buffer pH 7.4.

A word on the solubility: it is the concentration that dissolves in the medium under given conditions. As a reminder, the IC50 is the concentration that gives 50% inhibition. For the compound `CC(=O)NCCCC[C@@H]1NC(=O)[C@H](Cc2c[nH]c3ccccc23)NC(=O)CCCCN(C)CCCCN(C)CCCC[C@@H](C(=O)N[C@@H](CO)C(=O)N[C@@H](Cc2cccnc2)C(=O)N(C)CC(N)=O)NC(=O)C(C)(C)NC(=O)[C@H](Cc2ccc3ccccc3c2)NC(=O)[C@H](Cc2ccc(OCCN(C)C)cc2)NC(=O)C2(CCOCC2)NC1=O` [compound 42] (WK(Ac)[Thp]Y(Me2NCH2CH2)[2Nal][Aib][Lys(Me,(CH2)4NMe(CH2)4CO)]S[3Pal][Sar]-NH2; lactam N-7), the solubility at 2 h in data set [1] (setting [5]) was at least 1010 µg/mL; in data set [1] (setting [6]), at least 1030 µg/mL; in data set [1] (setting [7]), at least 1040 µg/mL. Also, the fraction remaining at 1 h, 1 µM was 100% in data set [2] and 59% in data set [4]. For the same compound, the IC50 in data set [3] came to 4.37 nM. Besides, the fraction remaining at 2 h, 1 µM in data set [4] was 42%. In data set [4], the fraction remaining at 4 h, 1 µM was 23%.
In the case of `CC(=O)NCCCC[C@@H]1NC(=O)[C@H](Cc2c[nH]c3c(C)cccc23)NC(=O)CCCCCN(C)CCCCN(C)CCCC[C@@H](C(=O)NCC(=O)N[C@@H](Cc2cccnc2)C(=O)N(C)CC(N)=O)NC(=O)C(C)(C)NC(=O)[C@H](Cc2ccc3ccccc3c2)NC(=O)[C@H](Cc2ccc(OCCN(C)C)cc2)NC(=O)C2(CCOCC2)NC1=O` [compound 27] ([Trp(7-Me)]K(Ac)[Thp]Y(Me2NCH2CH2)[2Nal][Aib][Lys(Me,(CH2)4NMe(CH2)5CO)]G[3Pal][Sar]-NH2; lactam N-7), the solubility at 2 h in data set [1] (setting [5]) was at least 980 µg/mL; in data set [1] (setting [6]), at least 920 µg/mL; in data set [1] (setting [7]), at least 960 µg/mL. For the same compound, the fraction remaining at 1 h, 1 µM is 100% in data set [2] and 97% in data set [4]. Also, the half-maximal inhibitory concentration (IC50) in data set [3] turned out to be 3.12 nM. In data set [4], the amount remaining at 2 h, 1 µM was 94%. Also, in data set [4], the fraction remaining at 4 h, 1 µM was 94%.
For the compound `CC(=O)NCCCC[C@@H]1NC(=O)[C@H](Cc2c[nH]c3c(C)cccc23)NC(=O)CCCCCCCCCCNC(=O)CC[C@@H](C(=O)N[C@@H](CC(N)=O)C(=O)N[C@@H](Cc2cccnc2)C(=O)N(C)CC(N)=O)NC(=O)[C@](C)(CCCCN(C)C)NC(=O)[C@H](Cc2ccc3ccccc3c2)NC(=O)[C@H](Cc2ccc(OCCN(C)C)cc2)NC(=O)C2(CCOCC2)NC1=O` [compound 21] ([Aun][Trp(7-Me)]K(Ac)[Thp]Y(Me2NCH2CH2)[2Nal][αMeLys(Me2)]EN[3Pal][Sar]-NH2; lactam N-8), the solubility at 2 h was at least 1150 µg/mL in data set [1] (setting [5]), at least 1170 µg/mL in data set [1] (setting [6]) and at least 1010 µg/mL in data set [1] (setting [7]). For the same compound, the values for the share remaining at 1 h, 1 µM in data set [2] and in data set [4] were 91% and 97%, respectively. Moreover, the IC50 in data set [3] came to 0.27 nM. For the same compound, the share remaining at 2 h, 1 µM in data set [4] is 100%. Further, in data set [4], the fraction remaining at 4 h, 1 µM is 101%.
As for `CN(C)CCOc1ccc(C[C@@H]2NC(=O)C3(CCOCC3)NC(=O)[C@H](CCC(N)=O)NC(=O)[C@H](Cc3cn(C)c4ccccc34)NC(=O)CCCCCN(C)CCCCN(C)CCCC[C@@H](C(=O)N[C@@H](CC(N)=O)C(=O)N[C@@H](Cc3cccnc3)C(=O)N(C)CC(N)=O)NC(=O)C(C)(C)NC(=O)[C@H](Cc3ccc4ccccc4c3)NC2=O)cc1` [compound 33] ([Trp(1-Me)]Q[Thp]Y(Me2NCH2CH2)[2Nal][Aib][Lys(Me,(CH2)4NMe(CH2)5CO)]N[3Pal][Sar]-NH2; lactam N-7), the solubility at 2 h in data set [1] (setting [5]) is at least 1000 µg/mL; in data set [1] (setting [6]), at least 1120 µg/mL; in data set [1] (setting [7]), at least 950 µg/mL. Further, the values for the fraction remaining at 1 h, 1 µM in data set [2] and in data set [4] were 100% and 97%, respectively. Moreover, in data set [3], the IC50 worked out at 0.8 nM. The fraction remaining at 2 h, 1 µM in data set [4] was 94%. Also, the fraction remaining at 4 h, 1 µM in data set [4] was 94%.
Take `CN(C)CCOc1ccc(C[C@@H]2NC(=O)C3(CCOCC3)NC(=O)[C@H](CCC(N)=O)NC(=O)[C@H](Cc3cn(C)c4ccccc34)NC(=O)CCCCN(C)CCCCN(C)CCCC[C@@H](C(=O)NCC(=O)NCCc3cccnc3)NC(=O)C(C)(C)NC(=O)[C@H](Cc3ccc4ccccc4c3)NC2=O)cc1` [compound 25] ([Trp(1-Me)]Q[Thp]Y(Me2NCH2CH2)[2Nal][Aib][Lys(Me,(CH2)4NMe(CH2)4CO)]G-{NH(2-(3-pyridyl)ethyl)}; lactam N-7): the solubility at 2 h in data set [1] (setting [5]) is at least 950 µg/mL; in data set [1] (setting [6]) it was at least 890 µg/mL; in data set [1] (setting [7]), at least 860 µg/mL. Also, the share remaining at 1 h, 1 µM in data set [2] is 98%; in data set [4], 97%. Further, the IC50 in data set [3] was determined as 42.5 nM. Also, the amount remaining at 2 h, 1 µM in data set [4] was 95%. Besides, the share remaining at 4 h, 1 µM in data set [4] was 96%.
For the compound `Cc1cccc2c(C[C@@H]3NC(=O)CCCCCN(C)CCCCN(C)CCCC[C@@H](C(=O)NCC(=O)N[C@@H](Cc4cccnc4)C(=O)N(C)CC(N)=O)NC(=O)C(C)(C)NC(=O)[C@H](Cc4ccc5ccccc5c4)NC(=O)[C@H](Cc4ccc(OCCN(C)C)cc4)NC(=O)C4(CCOCC4)NC(=O)[C@H](CCC(N)=O)NC3=O)c[nH]c12` [compound 26] ([Trp(7-Me)]Q[Thp]Y(Me2NCH2CH2)[2Nal][Aib][Lys(Me,(CH2)4NMe(CH2)5CO)]G[3Pal][Sar]-NH2; lactam N-7), the solubility at 2 h in data set [1] (setting [5]) is at least 1000 µg/mL; in data set [1] (setting [6]) it was at least 1010 µg/mL; in data set [1] (setting [7]) it was at least 890 µg/mL. Besides, the amount remaining at 1 h, 1 µM is 95% in data set [2] and 92% in data set [4]. In data set [3], the half-inhibitory concentration (IC50) was found to be 2.32 nM. Further, the fraction remaining at 2 h, 1 µM in data set [4] was 88%. For the same compound, the amount remaining at 4 h, 1 µM in data set [4] was 87%.
